The results in this text go back to US20240391965A1, “STAPLED ANTIMICROBIAL PEPTIDES (STAMPS) AND USES THEREOF” (Lytica Therapeutics, Inc., priority 2021, published 2024).

The nature of data set [1]: 90 minute cytotoxicity assay (LDH release), renal toxicity. Format: cell-based. The source says:
In some embodiments, a peptide provided herein has renal toxicity that is at least 10% (e.g., at least 15%, at least 20%, at least 25%, at least 30%, at least 35%, at least 40%, at least 45%, at least 50%, at least 55%, at least 60%, at least 65%, at least 65%, at least 70%, at least 75%, at least 80%, at least 85%, at least 90%, at least 95%, at least 99%) lower than the renal toxicity of the reference. The renal toxicity of a peptide can be measured in vitro using a renal proximal tubule epithelial cell (RPTEC) renal toxicity assay.
Cell culture: RPTEC were maintained in MEM media supplemented with growth factors. HEPG2 cell line was maintained in Eagle's Minimum Essential Medium (EMEM) supplemented with fetal bovine serum to a final concentration of 10%.
90 minute cytotoxicity assay: Cells were plated in a 96-well format, and after overnight incubation, media was replaced with fresh media. Serial dilutions of StAMPs from a 5 mg/mL water stock, or vehicle, were added to the cells in a final volume of 100 μl. After incubating at 37° C. for 90 min, 50 μl of cell culture media was transferred to a clear 96-well plate, incubated with 50 μl of lactate dehydrogenase (LDH) assay reagent for 10 min, and absorbance measured at 490 nm on a microplate reader.
Renal toxicity was measured after 90 minutes of incubation, while liver toxicity was measured after 48 hours of incubation with StAMPs. N/A=not tested.
(In general: LDH leaks from cells whose membrane has failed.)

The nature of data set [2]: 48 hours cytotoxicity assay (CellTiter-Glo), liver toxicity. Format: cell-based, human. The gist of the method:
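Viability from CellTiter-Glo luminescence after StAMP dilution series or vehicle acted on HepG2 cells for 48 h at 37 °C. Cells were grown in EMEM plus 10% FBS and given 4 h to attach before dosing.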

≈ marks a conversion by molar mass, not a printed value. Starred links: 1 amine or outer side, 2 acyl side, 3 side chain; linkers in the order of their positions; H or OH if unused. Positions of bridges follow the written chain, without caps; N, C: chain ends. Residues, ends and D or L forms follow the SMILES beside them. Biphenyl(4,4'-CH2)2 = c1cc(-c2ccc(C[*:2])cc2)ccc1C[*:1]; mXylylene = c1cc(C[*:1])cc(C[*:2])c1; pXylylene = c1cc(C[*:2])ccc1C[*:1]; X1 = C(=CC[*:2])C[*:1]

Take `CC[C@H](C)[C@H](NC(=O)CN)C(=O)N[C@@H](Cc1ccccc1)C(=O)N[C@H]1CSCc2ccc(cc2)CSC[C@@H](C(=O)N[C@@H](CCCCN)C(=O)N[C@@H](CCCCN)C(=O)N[C@H](C(=O)N[C@@H](CCCCN)C(=O)N[C@@H](CC(N)=O)C(=O)N[C@@H](CC(C)C)C(=O)N[C@@H](CC(C)C)C(=O)N[C@H](C(=O)N[C@@H](CO)C(=O)NCC(=O)N[C@@H](CC(C)C)C(=O)N[C@@H](CCCCN)C(=O)NCC(N)=O)[C@@H](C)CC)[C@@H](C)CC)NC(=O)[C@H](C)NC(=O)[C@H](CC(C)C)NC(=O)[C@H](CCCCN)NC1=O` [compound 6] (H-GIFCKLACKKIKNLLISGLKG-NH2; linker 4-8 via pXylylene; N-terminus assumed): the IC50 in data set [1] turned out to be 15 µg/mL (≈ 6.39 µM); in data set [2], 25 µg/mL (≈ 10.6 µM).

As to `CC[C@H](C)[C@H](NC(=O)CN)C(=O)N[C@H]1CSCc2ccc(cc2)-c2ccc(cc2)CSC[C@@H](C(=O)N[C@H](C(=O)N[C@@H](CCCCN)C(=O)N[C@@H](CC(N)=O)C(=O)N[C@@H](CC(C)C)C(=O)N[C@@H](CC(C)C)C(=O)N[C@H](C(=O)N[C@@H](CO)C(=O)NCC(=O)N[C@@H](CC(C)C)C(=O)N[C@@H](CCCCN)C(=O)NCC(N)=O)[C@@H](C)CC)[C@@H](C)CC)NC(=O)[C@H](CCCCN)NC(=O)CNC(=O)[C@H](C)NC(=O)[C@H](CC(C)C)NC(=O)[C@H](CCCCN)NC(=O)[C@H](CO)NC1=O` [compound 56] (H-GICSKLAGKCIKNLLISGLKG-NH2; linker 3-10 via Biphenyl(4,4'-CH2)2; N-terminus assumed), the concentration for half-maximal inhibition (IC50) worked out at 17 µg/mL (≈ 7.41 µM) in data set [1] and 34 µg/mL (≈ 14.8 µM) in data set [2].

`CC[C@H](C)[C@H](NC(=O)CN)C(=O)N[C@@H](Cc1ccccc1)C(=O)N[C@@H](CO)C(=O)N[C@@H](CCCCN)C(=O)N[C@@H](CC(C)C)C(=O)N[C@H]1CSCc2cccc(c2)CSC[C@@H](C(=O)N[C@@H](CCCCN)C(=O)N[C@@H](CC(N)=O)C(=O)N[C@@H](CC(C)C)C(=O)N[C@@H](CC(C)C)C(=O)N[C@H](C(=O)N[C@@H](CO)C(=O)NCC(=O)N[C@@H](CC(C)C)C(=O)N[C@@H](CCCCN)C(=O)NCC(=O)O)[C@@H](C)CC)NC(=O)[C@H](CCCCN)NC(=O)[C@H](CCCCN)NC(=O)[C@H](C)NC1=O` [compound 97] (H-GIFSKLCAKKCKNLLISGLKG-OH; linker 7-11 via mXylylene; N-terminus assumed): the IC50 in data set [1] and in data set [2] was more than 200 µg/mL each time.

In the case of `CC[C@H](C)[C@H](NC(=O)CN)C(=O)N[C@@H](Cc1ccccc1)C(=O)N[C@@H](CO)C(=O)N[C@@H](CCCCN)C(=O)N[C@H]1CSCc2ccc(cc2)CSC[C@@H](C(=O)N[C@H](C(=O)N[C@@H](CCCCN)C(=O)N[C@@H](CC(N)=O)C(=O)N[C@@H](CC(C)C)C(=O)N[C@@H](CC(C)C)C(=O)N[C@H](C(=O)N[C@@H](CO)C(=O)NCC(=O)N[C@@H](CC(C)C)C(=O)N[C@@H](CCCCN)C(=O)NCC(N)=O)[C@@H](C)CC)[C@@H](C)CC)NC(=O)[C@H](CCCCN)NC(=O)CNC(=O)[C@H](C)NC1=O` [compound 8] (H-GIFSKCAGKCIKNLLISGLKG-NH2; linker 6-10 via pXylylene; N-terminus assumed), the IC50 in data set [1] stood at 119 µg/mL (≈ 52.8 µM); in data set [2] it was 15 µg/mL (≈ 6.66 µM).

With `CC[C@H](C)[C@H](NC(=O)CN)C(=O)N[C@@H](Cc1ccccc1)C(=O)N[C@@H](CO)C(=O)N[C@@H](CCCCN)C(=O)N[C@@H](CC(C)C)C(=O)N[C@@H](C)C(=O)NCC(=O)N[C@@H](CCCCN)C(=O)N[C@@H](CCCCN)C(=O)N[C@H](C(=O)N[C@@H](CCCCN)C(=O)N[C@@H](CC(N)=O)C(=O)N[C@@H](CC(C)C)C(=O)N[C@@H](CC(C)C)C(=O)N[C@H](C(=O)N[C@H]1CSCC=CCSC[C@@H](C(N)=O)NC(=O)[C@H](CCCCN)NC(=O)[C@H](CC(C)C)NC(=O)CNC1=O)[C@@H](C)CC)[C@@H](C)CC` [compound 35] (H-GIFSKLAGKKIKNLLICGLKC-NH2; linker 17-21 via X1; N-terminus assumed), the half-maximal inhibitory concentration (IC50) in data set [1] and in data set [2] was approximately 200 µg/mL (≈ 87 µM) each time.

For the molecule `CC[C@H](C)[C@H](NC(=O)[C@H](CC(C)C)NC(=O)[C@H](CC(C)C)NC(=O)[C@H](CC(N)=O)NC(=O)[C@H](CCCCN)NC(=O)[C@@H](NC(=O)[C@H](CCCCN)NC(=O)[C@@H]1CSCc2ccc(cc2)-c2ccc(cc2)CSC[C@H](NC(=O)CN)C(=O)N[C@@H](Cc2ccccc2)C(=O)N[C@@H](CO)C(=O)N[C@@H](CCCCN)C(=O)N[C@@H](CC(C)C)C(=O)N[C@@H](C)C(=O)NCC(=O)N1)[C@@H](C)CC)C(=O)N[C@@H](CO)C(=O)NCC(=O)N[C@@H](CC(C)C)C(=O)N[C@@H](CCCCN)C(=O)NCC(N)=O` [compound 53] (H-GCFSKLAGCKIKNLLISGLKG-NH2; linker 2-9 via Biphenyl(4,4'-CH2)2; N-terminus assumed), the IC50 was found to be 40 µg/mL (≈ 17.2 µM) in data set [1] and 78 µg/mL (≈ 33.5 µM) in data set [2].

As for `CC[C@H](C)[C@H](NC(=O)CN)C(=O)N[C@@H](Cc1ccccc1)C(=O)N[C@@H](CO)C(=O)N[C@@H](CCCCN)C(=O)N[C@@H](CC(C)C)C(=O)N[C@@H](C)C(=O)NCC(=O)N[C@@H](CCCCN)C(=O)N[C@@H](CCCCN)C(=O)N[C@H](C(=O)N[C@@H](CCCCN)C(=O)N[C@@H](CC(N)=O)C(=O)N[C@@H](CC(C)C)C(=O)N[C@@H](CC(C)C)C(=O)N[C@H](C(=O)N[C@H]1CSCc2cccc(c2)CSC[C@@H](C(N)=O)NC(=O)[C@H](CCCCN)NC(=O)[C@H](CC(C)C)NC(=O)CNC1=O)[C@@H](C)CC)[C@@H](C)CC` [compound 44] (H-GIFSKLAGKKIKNLLICGLKC-NH2; linker 17-21 via mXylylene; N-terminus assumed), the IC50 in data set [1] turned out to be 86 µg/mL (≈ 36.6 µM); in data set [2] it was 48 µg/mL (≈ 20.4 µM).

Consider `CC[C@H](C)[C@H](NC(=O)CN)C(=O)N[C@@H](Cc1ccccc1)C(=O)N[C@@H](CO)C(=O)N[C@@H](CCCCN)C(=O)N[C@H]1CSCC=CCSC[C@@H](C(=O)N[C@H](C(=O)N[C@@H](CCCCN)C(=O)N[C@@H](CC(N)=O)C(=O)N[C@@H](CC(C)C)C(=O)N[C@@H](CC(C)C)C(=O)N[C@H](C(=O)N[C@@H](CO)C(=O)NCC(=O)N[C@@H](CC(C)C)C(=O)N[C@@H](CCCCN)C(=O)NCC(N)=O)[C@@H](C)CC)[C@@H](C)CC)NC(=O)[C@H](CCCCN)NC(=O)CNC(=O)[C@H](C)NC1=O` [compound 9] (H-GIFSKCAGKCIKNLLISGLKG-NH2; linker 6-10 via X1; N-terminus assumed), for which the IC50 in data set [1] is more than 200 µg/mL; in data set [2], 39 µg/mL (≈ 17.7 µM).

Take `CC[C@H](C)[C@H](NC(=O)CN)C(=O)N[C@@H](Cc1ccccc1)C(=O)N[C@@H](CO)C(=O)N[C@@H](CCCCN)C(=O)N[C@@H](CC(C)C)C(=O)N[C@H]1CSCc2cccc(c2)CSC[C@@H](C(=O)N[C@@H](CCCCN)C(=O)N[C@@H](CC(N)=O)C(=O)N[C@@H](CC(C)C)C(=O)N[C@@H](CC(C)C)C(=O)N[C@H](C(=O)N[C@@H](CO)C(=O)NCC(=O)N[C@@H](CC(C)C)C(=O)N[C@@H](CCCCN)C(=O)NCC(=O)N[C@@H](C)C(=O)NCC(=O)O)[C@@H](C)CC)NC(=O)[C@H](CCCCN)NC(=O)[C@H](CCCCN)NC(=O)CNC1=O` [compound 95] (H-GIFSKLCGKKCKNLLISGLKGAG-OH; linker 7-11 via mXylylene; N-terminus assumed): the half-maximal inhibitory concentration (IC50) in data set [1] was 167 µg/mL (≈ 68.5 µM); in data set [2], more than 200 µg/mL.

Regarding `CC[C@H](C)[C@H](NC(=O)CN)C(=O)N[C@@H](Cc1ccccc1)C(=O)N[C@@H](CO)C(=O)N[C@@H](CCCCN)C(=O)N[C@@H](CC(C)C)C(=O)N[C@@H](C)C(=O)NCC(=O)N[C@@H](CCCCN)C(=O)N[C@@H](CCCCN)C(=O)N[C@H](C(=O)N[C@@H](CCCCN)C(=O)N[C@@H](CC(N)=O)C(=O)N[C@@H](CC(C)C)C(=O)N[C@@H](CC(C)C)C(=O)N[C@H](C(=O)N[C@H]1CSCc2ccc(cc2)CSC[C@@H](C(N)=O)NC(=O)[C@H](CCCCN)NC(=O)[C@H](CC(C)C)NC(=O)CNC1=O)[C@@H](C)CC)[C@@H](C)CC` [compound 45] (H-GIFSKLAGKKIKNLLICGLKC-NH2; linker 17-21 via pXylylene; N-terminus assumed), the 50% inhibitory concentration (IC50) in data set [1] was 105 µg/mL (≈ 44.7 µM); in data set [2], 83 µg/mL (≈ 35.3 µM).

`CC[C@H](C)[C@H](NC(=O)[C@H](CC(C)C)NC(=O)[C@H](CC(C)C)NC(=O)[C@H](CC(N)=O)NC(=O)[C@H](CCCCN)NC(=O)[C@@H](NC(=O)[C@H](CCCCN)NC(=O)[C@H](CCCCN)NC(=O)CNC(=O)[C@H](C)NC(=O)[C@H](CC(C)C)NC(=O)[C@@H]1CSCc2cccc(c2)CSC[C@H](N)C(=O)N[C@@H]([C@@H](C)CC)C(=O)N[C@@H](Cc2ccccc2)C(=O)N[C@@H](CO)C(=O)N1)[C@@H](C)CC)C(=O)N[C@@H](CO)C(=O)NCC(=O)N[C@@H](CC(C)C)C(=O)N[C@@H](CCCCN)C(=O)NCC(N)=O` [compound 36] (H-CIFSCLAGKKIKNLLISGLKG-NH2; linker 1-5 via mXylylene; N-terminus assumed): the IC50 is approximately 200 µg/mL (≈ 86.7 µM) in data set [1] and 75 µg/mL (≈ 32.5 µM) in data set [2].

For orientation: IC50 means the concentration needed to halve the response being measured. Higher therefore signals weaker potency in that assay.
